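Where inhibition never reached the appropriate level, the endpoint shown equals the highest concentration tested. Otherwise, values were interpolated linearly from a five-concentration, 48-hour dose response in 96-well plates. Here, GI50 denotes the concentration required for 50% inhibition of growth.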 Activity calls are given as the source filed them. Rule as the data show it: active = GI50 up to about 1.1 µM and inactive = higher.
How the values were obtained:
Assay in all cases: NCI tumour cell line growth inhibition, 48 h
[1] = tested on: K562
[2] = tested on: SK-MEL-2
[3] = tested on: MDA-N
[4] = tested on: HCC 2998
[5] = tested on: OVCAR-5
[6] = tested on: SW-620
[7] = tested on: MCF7
[8] = tested on: SF-268
[9] = tested on: SK-MEL-5
[10] = tested on: HT-29
[11] = tested on: CAKI-1
[12] = tested on: PC-3
[13] = tested on: TK-10
[14] = tested on: Hs-578T
[15] = tested on: SNB-75
[16] = tested on: NCI-H226
[17] = tested on: SN12C
[18] = tested on: LOX IMVI
[19] = tested on: SF-539
[20] = tested on: T47D

Row | Compound | GI50 [1] | GI50 [2] | GI50 [3] | GI50 [4] | GI50 [5] | GI50 [6] | GI50 [7] | GI50 [8] | GI50 [9] | GI50 [10] | GI50 [11] | GI50 [12] | GI50 [13] | GI50 [14] | GI50 [15] | GI50 [16] | GI50 [17] | GI50 [18] | GI50 [19] | GI50 [20]
1 | COC(=O)C1CC(C=O)=C(SC)N1 (configuration not stated) | > 50 µM (inactive) | > 50 µM (inactive) | > 50 µM (inactive) | > 50 µM (inactive) | > 50 µM (inactive) | > 50 µM (inactive) | > 50 µM (inactive) | > 50 µM (inactive) | > 50 µM (inactive) | > 50 µM (inactive) | > 50 µM (inactive) | > 50 µM (inactive) | > 50 µM (inactive) | > 50 µM (inactive) | > 50 µM (inactive) |  |  |  |  | 
2 | Cc1cc2c(cc1C)[n+]([O-])c(C(=O)CC(=O)C(=O)Nc1ccccc1C)c(C)[n+]2[O-] | > 100 µM (inactive) | > 100 µM (inactive) |  | > 100 µM (inactive) | > 100 µM (inactive) | > 100 µM (inactive) |  | > 100 µM (inactive) | > 100 µM (inactive) | > 100 µM (inactive) | > 100 µM (inactive) |  | > 100 µM (inactive) |  | > 100 µM (inactive) | > 100 µM (inactive) | > 100 µM (inactive) | > 100 µM (inactive) | > 100 µM (inactive) | 
3 | O=C1C[C@@H]2[C@@H](CCC23CCCC3)N1 | > 100 µM (inactive) | > 100 µM (inactive) |  | > 100 µM (inactive) | > 100 µM (inactive) | > 100 µM (inactive) |  | > 100 µM (inactive) | > 100 µM (inactive) | > 100 µM (inactive) | > 100 µM (inactive) |  | > 100 µM (inactive) |  | > 100 µM (inactive) | > 100 µM (inactive) | > 100 µM (inactive) | > 100 µM (inactive) | > 100 µM (inactive) | 
4 | CSc1nc(NC(C)C)c2c(n1)Sc1nc3ccccc3n1N=C2 | 50.9 µM (inactive) | 17.9 µM (inactive) | 27 µM (inactive) | 3.65 µM (inactive) | 31.3 µM (inactive) | 13.1 µM (inactive) | 20.3 µM (inactive) | 25.7 µM (inactive) | 0.69 µM (active) | 21 µM (inactive) | 28.7 µM (inactive) | 19.5 µM (inactive) | 13.8 µM (inactive) | 20 µM (inactive) |  | 0.57 µM (active) | 10.7 µM (inactive) | 10.7 µM (inactive) |  | 
5 | Oc1ccc(Br)cc1/C=N/c1c(NC2CCCCC2)oc2ccc(Br)cc12 | 10.7 µM (inactive) |  | 32.6 µM (inactive) | 35.8 µM (inactive) | 63.1 µM (inactive) | 35.3 µM (inactive) | 16.2 µM (inactive) | 33.2 µM (inactive) | 40.6 µM (inactive) | 26.8 µM (inactive) | 36.8 µM (inactive) |  | 40.6 µM (inactive) |  | 37.2 µM (inactive) | 45.3 µM (inactive) | 44.4 µM (inactive) | 18.3 µM (inactive) | 61.2 µM (inactive) | 8.34 µM (inactive)
6 | CC(=O)/C(=C\n1c(=S)[nH]c2ccc([N+](=O)[O-])cc21)C(=O)Nc1ccccc1C | > 100 µM (inactive) | > 100 µM (inactive) | > 100 µM (inactive) | > 100 µM (inactive) | > 100 µM (inactive) | > 100 µM (inactive) | > 100 µM (inactive) |  | 78.3 µM (inactive) | > 100 µM (inactive) | > 100 µM (inactive) | > 100 µM (inactive) |  |  |  | > 100 µM (inactive) | > 100 µM (inactive) | > 100 µM (inactive) | 8.26 µM (inactive) | > 100 µM (inactive)
7 | CNC(=O)N(CCC#N)CCCN(C(=O)NC)c1ccccc1 | > 100 µM (inactive) | > 100 µM (inactive) | > 100 µM (inactive) | > 100 µM (inactive) | > 100 µM (inactive) | > 100 µM (inactive) | > 100 µM (inactive) |  | > 100 µM (inactive) | > 100 µM (inactive) | > 100 µM (inactive) | > 100 µM (inactive) | > 100 µM (inactive) |  | 72.6 µM (inactive) | > 100 µM (inactive) | > 100 µM (inactive) | > 100 µM (inactive) | > 100 µM (inactive) | > 100 µM (inactive)
8 | CC1=C(Cl)C[C@@H](/C(C)=C\Cl)O[C@@]1(O)C(Br)Br | 17.3 µM (inactive) | 28.4 µM (inactive) | 19.2 µM (inactive) | 33.3 µM (inactive) | 19.2 µM (inactive) | 37.3 µM (inactive) | 18.2 µM (inactive) | 32.7 µM (inactive) | 24.9 µM (inactive) | 32.1 µM (inactive) | 18.5 µM (inactive) | 60.5 µM (inactive) | 29 µM (inactive) | 45.5 µM (inactive) | 55.6 µM (inactive) |  | 19.5 µM (inactive) | 31.7 µM (inactive) | 33.8 µM (inactive) | 
9 | COC(=O)C1=Cc2cn(S(=O)(=O)c3ccc(C)cc3)c3cccc(c23)C(C=C(C)C)N1C(C)=O (configuration not stated) | 8 µM (inactive) | 4.68 µM (inactive) |  | > 100 µM (inactive) | > 100 µM (inactive) | 32.7 µM (inactive) |  | 93.5 µM (inactive) | 10.5 µM (inactive) | 27.9 µM (inactive) | 12.6 µM (inactive) |  | 38.9 µM (inactive) |  | 98.6 µM (inactive) | > 100 µM (inactive) | 14.1 µM (inactive) | 71.1 µM (inactive) | > 100 µM (inactive) | 
10 | CC(C)(C)OC(=O)NCCc1cccc2c1oc1c(CCC(=O)O)cccc12 | > 100 µM (inactive) | > 100 µM (inactive) |  | > 100 µM (inactive) | > 100 µM (inactive) | > 100 µM (inactive) |  | > 100 µM (inactive) | > 100 µM (inactive) | > 100 µM (inactive) | > 100 µM (inactive) |  | > 100 µM (inactive) |  | 95.9 µM (inactive) | > 100 µM (inactive) | > 100 µM (inactive) | > 100 µM (inactive) | > 100 µM (inactive) | 
11 | CN(C)c1cccc(-c2cc(O)c3cc4c(cc3n2)OCO4)c1 | 0.146 µM (active) | 0.221 µM (active) |  | 0.193 µM (active) | 0.274 µM (active) | 0.124 µM (active) |  | 0.327 µM (active) | 0.0776 µM (active) | 0.202 µM (active) | > 100 µM (inactive) |  | 1.83 µM (inactive) |  | 0.054 µM (active) | 0.315 µM (active) | 0.632 µM (active) | 0.192 µM (active) | 0.171 µM (active) | 
12 | CC1OC(=O)C(C(C)C)NC(=O)C(C(C)C)OC(=O)C(C(C)C)NC(=O)C(C)OC(=O)C(C(C)C)NC(=O)C(C(C)C)OC(=O)C(C(C)C)NC(=O)C(C)OC(=O)C(C(C)C)NC(=O)C(C(C)C)OC(=O)C(C(C)C)NC1=O (configuration not stated) | 0.00299 µM (active) | 0.00288 µM (active) | < 0.0001 µM (active) | 0.00256 µM (active) |  | 0.0025 µM (active) | 0.0025 µM (active) | 0.00314 µM (active) |  | 0.0025 µM (active) | 0.00288 µM (active) | < 0.0001 µM (active) | < 0.0001 µM (active) |  | 0.00301 µM (active) |  | 0.00273 µM (active) | 0.00538 µM (active) | 0.00333 µM (active) | < 0.0001 µM (active)

From ChEMBL document CHEMBL1201862, “PubChem BioAssay data set” (2004)
